# According to patent publication US20250057814A1, “ENDODONTIC BIOFILM-ERADICATION TECHNIQUE UTILIZING A DUAL-SYSTEM INTRACANAL MEDICATION” (priority 2023, published 2025):
# Marks after values point to notes of the source that are not given here.
# How the values were obtained:
# [1] = tested on: E. coli ATCC 25922; conditions: reference 26, cited from earlier work
# [2] = tested on: P. pseudomallei; conditions: reference 208, cited from earlier work
# [3] = tested on: S. aureus NCTC 8325-4; conditions: reference 215, cited from earlier work
# [4] = tested on: endodontic lesions; assay: Intracanal medication of patients with large endodontic lesions, healing evaluated by CBCT and radiograph; assay type: in vivo; conditions: 12 months post obturation
compound,measurement,setting,value
CC1(C)S[C@@H]2[C@H](NC(=O)[C@H](N)c3ccccc3)C(=O)N2[C@H]1C(=O)O [Ampicillin],Concentration effective against biofilm phenotype,"[1]; biofilm, minimal biofilm eradication concentration",512^b μg/ml
same,MIC of planktonic phenotype,[1]; planktonic E. coli ATCC 25922,2 (MIC) μg/ml
CC(C)(O/N=C(\C(=O)N[C@@H]1C(=O)N2C(C(=O)[O-])=C(C[n+]3ccccc3)CS[C@H]12)c1csc(N)n1)C(=O)O [Ceftazidime],Concentration effective against biofilm phenotype,"[2]; biofilm, concentration required for ~99% reduction",800^c μg/ml
same,MBC of planktonic phenotype,[2]; planktonic P. pseudomallei,8 (MBC) μg/ml
CN[C@H](CC(C)C)C(=O)N[C@H]1C(=O)N[C@@H](CC(N)=O)C(=O)N[C@H]2C(=O)N[C@H]3C(=O)N[C@H](C(=O)N[C@H](C(=O)O)c4cc(O)cc(O)c4-c4cc3ccc4O)[C@H](O)c3ccc(c(Cl)c3)Oc3cc2cc(c3O[C@@H]2O[C@H](CO)[C@@H](O)[C@H](O)[C@H]2O[C@H]2C[C@](C)(N)[C@H](O)[C@H](C)O2)Oc2ccc(cc2Cl)[C@H]1O [Vancomycin],Concentration effective against biofilm phenotype,"[3]; biofilm, concentration required for 99% reduction",20^a μg/ml
same,MBC of planktonic phenotype,[3]; planktonic S. aureus NCTC 8325-4,2 (MBC) μg/ml
[Ca+2].[OH-].[OH-] [calcium hydroxide],"change in size of lesion, Example Case No. 3",[4]; tooth 10,no change in the size of lesion
same,"lesion healing, Example Case No. 3 side-by-side comparison","[4]; four weeks of intra-canal medication, teeth 7 and 8 formula, tooth 10 calcium hydroxide",non-healing of the smaller lesion
